According to publication PMC10510108, “Studies Pertaining to the Emerging Cannabinoid Hexahydrocannabinol (HHC)” (ACS Chemical Biology, 2023):
“Also recorded” adds a separate entry of the source. Like-named read-outs stand apart in the source and are kept apart here.

Assays:
[1] = biological target: T1, human CB2 cannabinoid receptor (Homo sapiens, UniProt P34972); assay: biochemical; assay type: binding; conditions: for nH (Hill coefficient): competition curve fit; for Top (% inhibition of control specific binding): four parameter curve fit
T1 construct: host or cells: CHO cells
T1 sequence (P34972 whole entry): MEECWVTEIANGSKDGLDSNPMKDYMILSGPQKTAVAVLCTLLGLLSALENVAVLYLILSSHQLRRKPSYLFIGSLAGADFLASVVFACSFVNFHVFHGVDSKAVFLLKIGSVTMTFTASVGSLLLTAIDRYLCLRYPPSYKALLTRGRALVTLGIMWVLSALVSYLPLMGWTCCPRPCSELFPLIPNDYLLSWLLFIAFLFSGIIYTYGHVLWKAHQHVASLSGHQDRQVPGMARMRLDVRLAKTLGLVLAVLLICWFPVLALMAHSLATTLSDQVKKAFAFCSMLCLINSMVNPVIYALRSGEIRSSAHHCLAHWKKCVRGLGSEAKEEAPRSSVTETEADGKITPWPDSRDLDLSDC

[2] = biological target: T2, human CB1 cannabinoid receptor (Homo sapiens, UniProt P21554); assay: biochemical; assay type: binding; conditions: for nH (Hill coefficient) / Top (% inhibition of control specific binding): SI; for nH (Hill coefficient): competition curve fit; for Top (% inhibition of control specific binding): four parameter curve fit
T2 construct: host or cells: Chem-1 cells
T2 sequence (P21554 whole entry): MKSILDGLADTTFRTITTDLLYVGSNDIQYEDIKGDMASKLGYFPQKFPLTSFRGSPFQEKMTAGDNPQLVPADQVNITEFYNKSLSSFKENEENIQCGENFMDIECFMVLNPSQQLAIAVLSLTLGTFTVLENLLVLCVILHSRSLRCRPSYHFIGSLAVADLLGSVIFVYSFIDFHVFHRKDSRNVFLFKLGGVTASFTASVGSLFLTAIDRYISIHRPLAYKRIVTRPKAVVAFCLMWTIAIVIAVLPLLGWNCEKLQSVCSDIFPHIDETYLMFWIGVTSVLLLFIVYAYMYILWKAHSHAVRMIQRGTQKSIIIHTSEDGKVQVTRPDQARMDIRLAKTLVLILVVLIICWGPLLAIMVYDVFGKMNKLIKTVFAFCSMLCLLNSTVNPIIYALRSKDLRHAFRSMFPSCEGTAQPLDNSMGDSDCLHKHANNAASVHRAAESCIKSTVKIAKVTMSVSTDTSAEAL

human CB1 receptor = biological target: T3, human CB1 receptor (Homo sapiens, UniProt P21554); assay: cell-based; conditions: for EC50: cAMP HTRF, transfected CHO cells, two replicate experiments, error = standard deviation
T3 construct: host or cells: CHO cells
T3 sequence (P21554 whole entry): as above

human CB2 receptor = biological target: T4, human CB2 receptor (Homo sapiens, UniProt P34972); assay: cell-based; conditions: for EC50: cAMP HTRF, transfected CHO cells, two replicate experiments, error = standard deviation
T4 construct: host or cells: CHO cells
T4 sequence (P34972 whole entry): as the sequence (P34972 whole entry) above

[3] = [3H]WIN 55212-2 displacement, transfected CHO cell lysate, two replicate experiments, error = standard deviation, read-out: Ki (CB2)

Row | SMILES | % inhibition of control specific binding ([1]; Log[M] –5.48, 1st replicate) [%] | % inhibition of control specific binding ([1]; Log[M] –5.48, 2nd replicate) [%] | % inhibition of control specific binding ([1]; Log[M] –6.43, 1st replicate) [%] | % inhibition of control specific binding ([1]; Log[M] –6.43, 2nd replicate) [%] | % inhibition of control specific binding ([1]; Log[M] –6.91, 1st replicate) [%] | % inhibition of control specific binding ([1]; Log[M] –6.91, 2nd replicate) [%] | % inhibition of control specific binding ([1]; Log[M] –7.39, 1st replicate) [%] | % inhibition of control specific binding ([1]; Log[M] –7.39, 2nd replicate) [%] | % inhibition of control specific binding ([1]; Log[M] –7.86, 1st replicate) [%] | % inhibition of control specific binding ([1]; Log[M] –7.86, 2nd replicate) [%] | nH (Hill coefficient) ([1]; SI) | Top (% inhibition of control specific binding) ([1]; SI) | Ki [1, 3] [nM] | % inhibition of control specific binding ([2]; Log[M] –5.48, 1st replicate) [%] | % inhibition of control specific binding ([2]; Log[M] –5.48, 2nd replicate) [%] | % inhibition of control specific binding ([2]; Log[M] –6.43, 1st replicate) [%] | % inhibition of control specific binding ([2]; Log[M] –6.43, 2nd replicate) [%] | % inhibition of control specific binding ([2]; Log[M] –6.91, 1st replicate) [%] | % inhibition of control specific binding ([2]; Log[M] –6.91, 2nd replicate) [%] | agonist character at CB2 (human CB2 receptor; functional assay) | also measured
1 | CCCCCc1cc(O)c2c(c1)OC(C)(C)[C@@H]1CC[C@H](C)C[C@@H]21 [4b, (9S)-HHC] | 88.30 | 88.00 | 62.60 | 61.40 | 41.60 | 41.40 | 15.80 | 16.00 | 4.40 | 6.70 | 0.7 | 102 | 105 | 88.80 | 95.80 | 35.70 | 35.70 | 8.70 | 5.50 | partial agonists; also recorded: partial CB1 and CB2 receptor agonist activity | Ki ([1]; SI, curve fitted to mean replicate values, Cheng Prusoff, read-out: Ki): 110 nM; selectivity for CB2 (radioligand binding) ([1]; from Ki at CB1 and CB2): 1.7 x; % inhibition of control specific binding ([2]; Log[M] –7.39, 1st replicate): –4.50%; % inhibition of control specific binding ([2]; Log[M] –7.39, 2nd replicate): 0.20%; % inhibition of control specific binding ([2]; Log[M] –7.86, 1st replicate): –9.00%; % inhibition of control specific binding ([2]; Log[M] –7.86, 2nd replicate): –6.10%; nH (Hill coefficient) [2]: 1.1; Top (% inhibition of control specific binding) [2]: 106; Ki ([2]; [3H]CP 55940 displacement, transfected Chem-1 cell lysate, two replicate experiments, error = standard deviation, read-out: Ki (CB1)): 176 nM; selectivity for CB1 (functional assay) (human CB1 receptor; CB1 versus CB2, from EC50): no significant selectivity; EC50 (human CB1 receptor): 57 nM; agonist character at CB1 (human CB1 receptor; functional assay): partial agonists; also recorded: partial CB1 and CB2 receptor agonist activity; EC50 (human CB2 receptor): 56 nM; selectivity for CB2 (functional activity) (human CB2 receptor; from EC50 at CB1 and CB2): 1.0 x
2 | CCCCCc1cc(O)c2c(c1)OC(C)(C)[C@@H]1CC[C@@H](C)C[C@@H]21 [4a, (9R)-HHC] | 98.00 | 97.20 | 96.90 | 93.60 | 86.90 | 84.70 | 64.90 | 67.50 | 47.90 | 41.40 | 1.1 | 99 | 13 | 112.10 | 113.60 | 95.20 | 100.00 | 82.50 | 83.30 | partial agonists; also recorded: partial CB1 and CB2 receptor agonist activity | selectivity for CB2 (radioligand binding) [1]: 1.2 x; Ki [2]: 15 nM; % inhibition of control specific binding ([2]; Log[M] –7.39, 1st replicate): 50.10%; % inhibition of control specific binding ([2]; Log[M] –7.39, 2nd replicate): 52.90%; % inhibition of control specific binding ([2]; Log[M] –7.86, 1st replicate): 27.40%; % inhibition of control specific binding ([2]; Log[M] –7.86, 2nd replicate): 29.00%; nH (Hill coefficient) [2]: 1.1; Top (% inhibition of control specific binding) [2]: 111; selectivity for CB1 (functional assay) (human CB1 receptor): 1.8 x; EC50 (human CB1 receptor): 3.4 nM; agonist character at CB1 (human CB1 receptor; functional assay): partial agonists; also recorded: partial CB1 and CB2 receptor agonist activity; increase in potency compared to 4b, CB1 (human CB1 receptor; functional assay): 17 fold; selectivity for CB2 (functional activity) (human CB2 receptor): 0.55 x; EC50 (human CB2 receptor): 6.2 nM; increase in potency compared to 4b, CB2 (human CB2 receptor; functional assay): 9 fold
3 | CCCCCc1cc(O)c2c(c1)OC(C)(C)[C@@H]1CCC(C)=C[C@@H]21 [compound 1, Δ^9-trans-tetrahydrocannabinol, reference compound] | 97.00 | 96.20 | 98.10 | 98.20 | 88.60 | 89.90 | 74.30 | 67.60 | 50.30 | 51.20 | 1.0 | 100 |  |  |  |  |  |  |  | partial agonists; also recorded: partial CB1 and CB2 receptor agonist activity | 
